Where two headings read alike, the source gives them in different places.
Biological target: Factor D (Homo sapiens (Human), UniProt P00746)
Experiment: biochemical
Type: biochemical

Chain of Factor D (P00746 26-253): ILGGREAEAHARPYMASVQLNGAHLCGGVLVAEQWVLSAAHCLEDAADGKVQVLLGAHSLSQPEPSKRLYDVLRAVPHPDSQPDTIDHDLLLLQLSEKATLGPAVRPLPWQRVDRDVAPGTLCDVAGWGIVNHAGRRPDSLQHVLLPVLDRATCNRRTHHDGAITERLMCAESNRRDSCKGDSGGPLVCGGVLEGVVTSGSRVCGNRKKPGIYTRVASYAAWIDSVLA

| Compound | IC50 (read-out: IC50) | IC50 |
| --- | --- | --- |
| NC(=O)n1cc(NC(=O)N2CC[C@@H](F)[C@H]2C(=O)NCc2cccc(Cl)c2)c2ccccc21 [Example 349, 2R,3R)-3-Fluoro-pyrrolidine-1,2-dicarboxylic acid 1-[(1-carbamoyl-1H-indol-3-yl)-amide]2-(3-chloro-benzylamide] | 150 nM | – |
| NC(=O)c1cn(CC(=O)N2C[C@H](F)C[C@H]2C(=O)NCc2cccc(Cl)c2F)c2ccccc12 [Example 476, 1-{2-[(2S,4R)-2-(3-Chloro-2-fluoro-benzylcarbamoyl)-4-fluoro-pyrrolidin-1-yl]-2-oxo-ethyl}-1H-indole-3-carboxylic acid amide] | 33 nM | – |
| NC(=O)n1cc(NC(=O)N2CC3CC2(C(=O)NCc2cccc(Cl)c2F)C3)c2ccccc21 [Example 136, 2-Aza-bicyclo[2.1.1]hexane-1,2-dicarboxylic acid 2-[(1-carbamoyl-1H-indol-3-yl)-amide] 1-(3-chloro-2-fluoro-benzylamide)] | – | 17900 nM |
| C[C@@H](NC(=O)[C@@H]1C[C@H]2C[C@H]2N1C(=O)Cn1nc(C(N)=O)c2cc(C(F)(F)F)ncc21)c1cccc(Cl)c1F [Example 699, 1-(2-{(1R,3S,5R)-3-[(R)-1-(3-Chloro-2-fluoro-phenyl)-ethylcarbamoyl]-2-aza-bicyclo[3.1.0]hex-2-yl}-2-oxo-ethyl)-5-trifluoromethyl-1H-pyrazolo[3,4-c]pyridine-3-carboxylic acid amide] | 118 nM | – |
| CC(=O)c1cn(CC(=O)N2[C@@H]3C[C@@H]3C[C@H]2C(=O)N[C@H](CCO)c2cccc(Cl)c2F)c2ccccc12 [Example 504, (1R,3S,5R)-2-[2-(3-Acetyl-indol-1-yl)-acetyl]-2-aza bicyclo[3.1.0]hexane-3-carboxylic acid [(R)-1-(3-chloro-2-fluoro-phenyl)-3-hydroxy-propyl]-amide] | 57 nM | – |
| NC(=O)c1cn(CC(=O)N2C[C@H](F)C[C@H]2C(=O)Nc2cccc(C(F)(F)F)c2F)c2ccccc12 [Example 517, 1-{2-[(2S,4R)-4-Fluoro-2-(2-fluoro-3-trifluoromethyl-phenylcarbamoyl)-pyrrolidin-1-yl]-2-oxo-ethyl}-1H-indole-3-carboxylic acid amide] | 1460 nM | – |
| NC(=O)n1cc(NC(=O)N2CC[C@@H](N)[C@H]2C(=O)N[C@@H](c2cccc(Cl)c2F)C(F)(F)F)c2ccccc21 [Example 419, (2S,3R)-3-Amino-pyrrolidine-1,2-dicarboxylic acid 1-[(1-carbamoyl-1H-indol-3-yl)-amide]2-{[(S)-1-(3-chloro-2-fluoro-phenyl)-2,2,2-trifluoro-ethyl]-amide}] | 476 nM | – |
| NC(=O)n1cc(CC(=O)N2C[C@@H]3C[C@@H]3[C@H]2C(=O)NCc2cccc(Cl)c2F)c2cc(OCCO)ccc21 (relative stereo) [Example 465, 3-{2-[(1S*,2S*,5R*)-2-(3-Chloro-2-fluoro-benzylcarbamoyl)-3-aza-bicyclo[3.1.0]hex-3-yl]-2-oxo-ethyl}-5-(2-hydroxy-ethoxy)-indole-1-carboxylic acid amide] | – | 1590 nM |
| CO[C@H]1[C@@H](C(=O)NC2(c3cccc(Cl)c3F)CC2)N(C(=O)Cn2nc(C(N)=O)c3cnccc32)C[C@@H]1F [Example 660, 1-(2-{(2S,3S,4S)-2-[1-(3-Chloro-2-fluoro-phenyl)-cyclopropylcarbamoyl]-4-fluoro-3-methoxy-pyrrolidin-1-yl}-2-oxo-ethyl)-1H-pyrazolo[4,3-c]pyridine-3-carboxylic acid amide] | 16 nM | – |
| COC(=O)[C@H]1C[C@@H](C(=O)NCc2cccc(Cl)c2F)N(C(=O)Nc2cn(C(N)=O)c3ccccc23)C1 [Example 200, (3S,5S)-1-(1-Carbamoyl-1H-indol-3-ylcarbamoyl)-5-(3-chloro-2-fluoro-benzylcarbamoyl)-pyrrolidine-3-carboxylic acid methyl ester] | 25 nM | – |
| NC(=O)n1cc(NC(=O)N2C[C@H](CO)C[C@H]2C(=O)NCc2cccc(Cl)c2F)c2ccccc21 [Example 352, 2S,4R)-4-Hydroxymethyl-pyrrolidine-1,2-dicarboxylic acid 1-[(1-carbamoyl-1H-indol-3-yl)-amide]2-(3-chloro-2-fluoro-benzylamide] | 200 nM | – |
| CCO[C@H]1[C@@H](C(=O)NCc2cccc(Cl)c2F)N(C(=O)Cn2cc(C(C)=O)c3ccccc32)C[C@@H]1F [Example 569, (2S,3S,4S)-1-[2-(3-Acetyl-indol-1-yl)-acetyl]-4-fluoro-3-ethoxy-pyrrolidine-2-carboxylic acid 3-chloro-2-fluoro-benzylamide] | 13 nM | – |
| NC(=O)n1cc(NC(=O)N2C[C@H](F)[C@@H](N)[C@H]2C(=O)NCc2cccc(Cl)c2F)c2ccccc21 [Example 431, 2S,3S,4S)-3-Amino-4-fluoro-pyrrolidine-1,2-dicarboxylic acid 1-[(1-carbamoyl-1H-indol-3-yl)-amide]2-(3-chloro-2-fluorobenzylamide] | 31 nM | – |
| CC(C)c1cccc(NC(=O)[C@@H]2C[C@H]3C[C@H]3N2C(=O)Cn2nc(C(N)=O)c3ccncc32)n1 [Example 673, 1-{2-[(1R,3S,5R)-3-(6-Isopropyl-pyridin-2-ylcarbamoyl)-2-aza-bicyclo [3.1.0]hex-2-yl]-2-oxo-ethyl}-1H-pyrazolo[3,4-c]pyridine-3-carboxylic acid amide] | 157 nM | – |
| CC[C@H](C)[C@@H](CO)NC(=O)[C@@H]1C[C@H](N)CN1C(=O)Nc1cn(C(N)=O)c2ccccc12 [Example 101, (2S,4S)-4-Amino-pyrrolidine-1,2-dicarboxylic acid 1-[(1-carbamoyl-1H-indol-3-yl)-amide] 2-[((1S,2S)-1-hydroxymethyl-2-methyl-butyl)-amide]] | 15200 nM | – |
| NC(=O)n1cc(NC(=O)N2C[C@H](F)C[C@H]2C(=O)NC2CCOc3ccc(Cl)cc32)c2ccccc21 (mixture of isomers) [Example 326, (2S,4R)-4-Fluoro-pyrrolidine-1,2-dicarboxylic acid 1-[(1-carbamoyl-1H-indol-3-yl)-amide] 2-[(6-chloro-chroman-4-yl)-amide] (mixture of 2 diastereomers)] | 7150 nM | – |
| CC(=O)c1nn(CC(=O)N2[C@@H]3C[C@@H]3C[C@H]2C(=O)Nc2nccc(C(F)(F)F)n2)c2ncccc12 [Example 769, (1R,3S,5R)-2-[2-(3-Acetyl-pyrazolo[3,4-b]pyridin-1-yl)-acetyl]-2-aza-bicyclo[3.1.0]hexane-3-carboxylic acid (4-trifluoromethyl-pyrimidin-2-yl)-amide] | 378 nM | – |
| CN1CCN(Cc2cc(Cl)c(F)c(CNC(=O)[C@@H]3C[C@@H](F)CN3C(=O)Nc3cn(C(N)=O)c4ccccc34)c2)CC1 [Example 10, (2S,4R)-4-Fluoro-pyrrolidine-1,2-dicarboxylic acid 1-[(1-carbamoyl-1H-indol-3-yl)-amide] 2-[3-chloro-2-fluoro-5-(4-methyl-piperazin-1-ylmethyl)-benzylamide]] | 604 nM | – |
| COCCOc1ccc2c(c1)c(C(C)=O)nn2CC(=O)N1[C@@H]2C[C@@H]2C[C@H]1C(=O)Nc1cccc(OC(F)(F)F)c1F [Example 770, (1R,3S,5R)-2-{2-[3-Acetyl-5-(2-methoxy-ethoxy)-indazol-1-yl]-acetyl}-2-aza-bicyclo[3.1.0]hexane-3-carboxylic acid (2-fluoro-3-trifluoromethoxy-phenyl)-amide] | 9 nM | – |
| CC(=O)c1cn(CC(=O)N2C[C@H](F)C[C@H]2C(=O)NCc2cc(-c3nnn[nH]3)cc(Cl)c2F)c2ccccc12 [Example 521, (2S,4R)-1-[2-(3-Acetyl-indol-1-yl)-acetyl]-4-fluoro-pyrrolidine-2-carboxylic acid 3-chloro-2-fluoro-5-(1H-tetrazol-5-yl)-benzylamide] | 37 nM | – |
| CC(=O)c1cn(CC(=O)N2[C@@H]3C[C@@H]3C[C@H]2C(=O)NCc2cc(-c3nnn[nH]3)cc(Cl)c2F)c2ccccc12 [Example 525, (1R,3S,5R)-2-[2-(3-Acetyl-indol-1-yl)-acetyl]-2-aza-bicyclo[3.1.0]hexane-3-carboxylic acid 3-chloro-2-fluoro-5-(1H-tetrazol-5-yl)-benzylamide] | 36 nM | – |
| NC(=O)n1cc(NC(=O)N2C[C@H](F)C[C@H]2C(=O)NCc2cccc(Cl)c2F)c2ccc(OC(F)F)cc21 [Example 308, (2S,4R)-4-Fluoro-pyrrolidine-1,2-dicarboxylic acid 1-[(1-carbamoyl-6-difluoromethoxy-1H-indol-3-yl)-amide] 2-(3-chloro-2-fluoro-benzylamide)] | 127 nM | – |
| NC(=O)n1cc(NC(=O)N2CC[C@H]2C(=O)Nc2cccc(OC(F)(F)F)c2)c2ccccc21 [Example 299, (S)-Azetidine-1,2-dicarboxylic acid 1-[(1-carbamoyl-1H-indol-3-yl)-amide] 2-[(3-trifluoromethoxy-phenyl)-amide]] | 1800 nM | – |
| CC(=O)n1cc(C(N)C(=O)N2C[C@H](F)C[C@H]2C(=O)NCc2cccc(Cl)c2F)c2ccccc21 (stereo partly drawn) [Example 120, (2S,4R)-1-[2-(1-Acetyl-1H-indol-3-yl)-2-amino-acetyl]-4-fluoro-pyrrolidine-2-carboxylic acid 3-chloro-2-fluoro-benzylamide] | 3200 nM | – |
| CO[C@H]1[C@@H](C(=O)NCc2cccc(Cl)c2F)N(C(=O)Cn2cc(C(C)=O)c3ccccc32)C[C@@H]1F [Example 505, (2S,3S,4S)-1-[2-(3-Acetyl-indol-1-yl)-acetyl]-4-fluoro-3-methoxy-pyrrolidine-2-carboxylic acid 3-chloro-2-fluoro-benzylamide] | – | 14 nM |
| COC(=O)COc1ccc2c(C(N)=O)cn(CC(=O)N3C[C@H](F)C[C@H]3C(=O)NCc3cccc(Cl)c3F)c2c1 [Example 592, (3-Carbamoyl-1-{2-[(2S,4R)-2-(3-chloro-2-fluoro-benzylcarbamoyl)-4-fluoro-pyrrolidin-1-yl]-2-oxo-ethyl}-1H-indol-6-yloxy)-acetic acid methyl ester] | 115 nM | – |
| O=C(CO)c1cn(CC(=O)N2[C@@H]3C[C@@H]3C[C@H]2C(=O)NCc2cccc(Cl)c2F)c2ccccc12 [Example 556, (1R,3S,5R)-2-{2-[3-(2-Hydroxy-acetyl)-indol-1-yl]-acetyl}-2-aza-bicyclo[3.1.0] hexane-3-carboxylic acid 3-chloro-2-fluoro-benzylamide] | 25 nM | – |
